Read-outs that look alike come from different tables or passages of the source.

We go through 22 compounds from patent US6437143B1, “Thiazolidone-2 derivatives, 4-diketone substituted, method for obtaining them and pharmaceutical compositions containing same” (Merck Patent Gesellschaft mit beschrankter Haftung, priority 1996, dated 2002).

The subject of data set [1] is non-insulin-dependent diabetes induced in rats by Streptozotocin. Kind of data set: Antidiabetic activity by the oral route in the nOSTZ rat model of non-insulin-dependent diabetes. In kind it is in vivo. The note with it: 96 h, nOSTZ diabetic rats; for change in vivo at 20 mg/kg: 20 mg/kg/4d; for change in vivo at 200 mg/kg: 200 mg/kg/4d. The protocol:
To determine an antidiabetic activity by the oral route on an experimental model of non-insulin-dependent diabetes induced in rats by Streptozotocin.
The non-insulin-dependent diabetes model is obtained in rats by a neonatal injection (on the day of birth) of Streptozotocin.
The diabetic rats used are 8 weeks old.
The animals are kept, from the day of their birth to the day of the experiment, in an animal house at a regulated temperature of 21 to 22° C., and subjected to a fixed cycle of light (from 7.00 h to 19.00 h) and of darkness (from 19.00 h to 7.00 h). Their diet consisted of a maintenance diet; water and food were provided “ad libitum”, with the exception of the 2 hours of fasting preceding the tests where food is withdrawn.
On the day of the experiment, the rats are treated orally with the test product, and then 90′ later, are anaesthetized with Nembutal. 2 hours after the administration of the product, a 500-μl blood sample is collected from the tail.
The blood is collected over Heparin. All the tubes are placed on ice at the time the samples are collected. These are then centrifuged for 10 minutes at 3000 revolutions/minute to separate the organized elements as rapidly as possible.
The plasma obtained is distributed into 2 aliquots: one for the assay of glycaemia and lactatamia; these assays are carried out immediately the other for the assay of insulinaemia—is stored in the freezer at −20° C. up to the day of the assay They are determined by the glucose oxydase and lactate oxydase technique (Eppendorf Ebio 6666) The plasma insulin is assayed by a radio-immunological method

Broadly, the melting point is the temperature, or range, at which the solid turns liquid. `O=C1NC(=O)C(CCOc2ccc(C(=O)O)cc2)S1` (centres unmarked) [Compound 21] gave a melting point of 234 to 236 °C. In data set [1] (read-out: % Glycaemia), the change in vivo at 20 mg/kg was -1% and the change in vivo at 200 mg/kg was -9%.

In turn, `O=C1NC(=O)C(CCOc2ccc(F)cc2)S1` (centres unmarked) [Compound 2, 5-[2-(4-fluorophenoxy)ethyl]-2,4-thiazolidinedione] gave a melting point of 94 to 96 °C. Further, in data set [1] (read-out: % Glycaemia), the change in vivo at 20 mg/kg is -2% and the change in vivo at 200 mg/kg is -19%. In data set [1] (read-out: % Insulinaemia), the change in vivo at 20 mg/kg is -1% and the change in vivo at 200 mg/kg is -27%.

`O=C1NC(=O)C(CCCCCOc2ccc(F)cc2)S1` (centres unmarked) [Compound 10] came in with a melting point of 98 to 100 °C. Moreover, in data set [1] (read-out: % Glycaemia), the change in vivo at 20 mg/kg was -1% and the change in vivo at 200 mg/kg is -9%. For the same compound, in data set [1] (read-out: % Insulinaemia), the change in vivo at 20 mg/kg was -12% and the change in vivo at 200 mg/kg is -48%.

As for `O=C1NC(=O)C(CCOc2cccc3ccccc23)S1` (centres unmarked) [Compound 11], the melting point is 185 to 187 °C. Besides, in data set [1] (read-out: % Glycaemia), the change in vivo at 20 mg/kg was -12% and the change in vivo at 200 mg/kg was -21%. Moreover, in data set [1] (read-out: % Insulinaemia), the change in vivo at 20 mg/kg is -31% and the change in vivo at 200 mg/kg is -23%.

As to `O=C1NC(=O)C(CC(O)COc2ccc(F)cc2)S1` (centres unmarked) [Compound 17, 5-{[2-hydroxy-3-(4-fluorophenoxy)]propyl}-2,4-thiazolidinedione], the melting point was in the range of 96 to 98 °C. Also, in data set [1] (read-out: % Glycaemia), the change in vivo at 20 mg/kg is -20% and the change in vivo at 200 mg/kg was -7%. Further, in data set [1] (read-out: % Insulinaemia), the change in vivo at 20 mg/kg is 4% and the change in vivo at 200 mg/kg was -5%.

`O=C1NC(=O)C(CCOc2ccc(Cl)cc2)S1` (centres unmarked) [Compound 4] had a melting point of 116 to 118 °C. In data set [1] (read-out: % Glycaemia), the change in vivo at 20 mg/kg is -3% and the change in vivo at 200 mg/kg was -17%. Further, in data set [1] (read-out: % Insulinaemia), the change in vivo at 20 mg/kg is -35% and the change in vivo at 200 mg/kg was -33%.

As to `Cc1ccc(C)c(OCCC2SC(=O)NC2=O)c1` (centres unmarked) (hydrate or solvate) [Compound 18], the melting point was in the range of 134 to 136 °C.

In turn, `O=C1NC(=O)C(CCOc2ccc(Br)cc2)S1` (centres unmarked) [Compound 5] returned a melting point of 104 to 106 °C. In data set [1] (read-out: % Glycaemia), the change in vivo at 20 mg/kg is -10% and the change in vivo at 200 mg/kg is -23%. In addition, in data set [1] (read-out: % Insulinaemia), the change in vivo at 20 mg/kg is -9% and the change in vivo at 200 mg/kg was -62%.

As for `O=C1NC(=O)C(CCOc2cccc(F)c2)S1` (centres unmarked) [Compound 13], the melting point amounted to 87 °C. Also, in data set [1] (read-out: % Glycaemia), the change in vivo at 20 mg/kg was -14% and the change in vivo at 200 mg/kg is -2%.

Compound `O=C1NC(=O)C(CCCCCCOc2ccc(Cl)cc2)S1` (centres unmarked) [Compound 9] showed a melting point of 68 to 70 °C. In data set [1] (read-out: % Glycaemia), the change in vivo at 20 mg/kg is 10% and the change in vivo at 200 mg/kg was -16%. For the same compound, in data set [1] (read-out: % Insulinaemia), the change in vivo at 20 mg/kg was -15% and the change in vivo at 200 mg/kg was -30%.

As to `O=C1NC(=O)C(CCCOc2ccc(F)cc2)S1` (centres unmarked) [Compound 3, 5-[3-(4-fluorophenoxy)propyl]-2,4-thiazolidinedione], the melting point lay in the range of 121 to 123 °C. In data set [1] (read-out: % Glycaemia), the change in vivo at 20 mg/kg was -17% and the change in vivo at 200 mg/kg is -17%. Besides, in data set [1] (read-out: % Insulinaemia), the change in vivo at 20 mg/kg stood at 1% and the change in vivo at 200 mg/kg was -37%.

In the case of `O=C1NC(=O)C(CCOc2ccccc2)S1` (centres unmarked) [Compound 1, 5-(2-phenoxyethyl)-2,4-thiazolidinedione], in data set [1] (read-out: % Glycaemia), the change in vivo at 20 mg/kg was -15% and the change in vivo at 200 mg/kg was -26%.

`O=C1NC(=O)C(C(COc2ccc(F)cc2)c2ccccc2)S1` (centres unmarked) [Compound 12] yielded a melting point of 121 °C. In data set [1] (read-out: % Glycaemia), the change in vivo at 20 mg/kg is -6% and the change in vivo at 200 mg/kg is -6%. Further, in data set [1] (read-out: % Insulinaemia), the change in vivo at 20 mg/kg is -35% and the change in vivo at 200 mg/kg is -56%.

`COCCc1ccc(OCCC2SC(=O)NC2=O)cc1` (centres unmarked) [Compound 20]: the melting point lay in the range of 101 to 103 °C. Moreover, in data set [1] (read-out: % Glycaemia), the change in vivo at 20 mg/kg is -10% and the change in vivo at 200 mg/kg is -14%.

The compound `O=C1NC(=O)C(C(O)COc2ccc(F)cc2)S1` (centres unmarked) [Compound 16, 5-{[1-hydroxy-2-(4-fluorophenoxy)]ethyl}-2,4-thiazolidinedione] registered a melting point of 131 to 133 °C. Also, in data set [1] (read-out: % Glycaemia), the change in vivo at 20 mg/kg is -6% and the change in vivo at 200 mg/kg is -22%. In data set [1] (read-out: % Insulinaemia), the change in vivo at 20 mg/kg was -12% and the change in vivo at 200 mg/kg is 0%.

Compound `O=C1NC(=O)C(CC2COc3ccccc3O2)S1` (centres unmarked) [Compound 7] gave a melting point of 145 °C. Besides, in data set [1] (read-out: % Glycaemia), the change in vivo at 20 mg/kg is 1% and the change in vivo at 200 mg/kg was -10%. In data set [1] (read-out: % Insulinaemia), the change in vivo at 20 mg/kg worked out at 6% and the change in vivo at 200 mg/kg is -47%.

On to `Cc1ccc(C)c(OCCC2SC(=O)NC2=O)c1` (centres unmarked) [Compound 18], for which, in data set [1] (read-out: % Glycaemia), the change in vivo at 20 mg/kg is -8% and the change in vivo at 200 mg/kg is -9%. Also, in data set [1] (read-out: % Insulinaemia), the change in vivo at 20 mg/kg is -4% and the change in vivo at 200 mg/kg was -17%.

Compound `CC(COc1ccccc1)C1SC(=O)NC1=O` (centres unmarked) [Compound 19, 5-[1-methyl-2-phenoxyethyl]-2,4-thiazolidinedione] yielded a melting point of 106 to 108 °C. In data set [1] (read-out: % Glycaemia), the change in vivo at 20 mg/kg was -6% and the change in vivo at 200 mg/kg is -20%. Also, in data set [1] (read-out: % Insulinaemia), the change in vivo at 20 mg/kg came to 2% and the change in vivo at 200 mg/kg was -10%.

The compound `Cc1ccc(OCCC2SC(=O)NC2=O)cc1` (centres unmarked) [Compound 8] showed a melting point of 119 to 121 °C. Further, in data set [1] (read-out: % Glycaemia), the change in vivo at 20 mg/kg was -3% and the change in vivo at 200 mg/kg is -9%. In data set [1] (read-out: % Insulinaemia), the change in vivo at 20 mg/kg is -30% and the change in vivo at 200 mg/kg was -26%.

`N#Cc1ccc(OCCC2SC(=O)NC2=O)cc1` (centres unmarked) [Compound 6, 5-[2-(4-cyanophenoxy)ethyl]-2,4-thiazolidinedione]: the change in vivo at 20 mg/kg was -20% in data set [1] (read-out: % Glycaemia) and 0% in data set [1] (read-out: % Insulinaemia). Further, the change in vivo at 200 mg/kg is -26% in data set [1] (read-out: % Glycaemia) and -49% in data set [1] (read-out: % Insulinaemia).

On to `O=C1NC(=O)C(CCOc2ccc3ccccc3c2)S1` (centres unmarked) [Compound 15], for which the melting point was 133 °C. In addition, in data set [1] (read-out: % Glycaemia), the change in vivo at 20 mg/kg is -14% and the change in vivo at 200 mg/kg is -22%. In data set [1] (read-out: % Insulinaemia), the change in vivo at 20 mg/kg is -9% and the change in vivo at 200 mg/kg was -12%.

For `O=C1NC(=O)C(CCOc2ccccc2F)S1` (centres unmarked) [Compound 14], the melting point came out at 138 °C. In data set [1] (read-out: % Glycaemia), the change in vivo at 20 mg/kg was -4% and the change in vivo at 200 mg/kg is -7%. In data set [1] (read-out: % Insulinaemia), the change in vivo at 20 mg/kg was -23% and the change in vivo at 200 mg/kg is -51%.
